“And” between values parts separate entries of the source, which are not always exact repeats. Equal values may be shown once. Inconclusive results and toxic doses are left out. How the source made its calls: active means survival T/C of 150% or more; inactive means T/C below 125% in these data. Square brackets hold non-standard residues; d marks the D form. Peptide text beside a SMILES is read from it. ξ: configuration not given here. ξNle = CCCCC(N)C(=O)O
Test system: P388 leukemia ip, CD2F1 mice, survival T/C
Assay: NCI In Vivo Anticancer Drug Screen. Data for tumor model P388 Leukemia (intraperitoneal) in CD2F1 (CDF1) mice
Conditions: endpoint: median survival time, higher = longer survival
How it was run: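 Mice carrying the transplanted tumor received test compound or vehicle. Survival was recorded in each group, and the value is the treated-group measurement divided by that of the vehicle-treated control group.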

[1] = dose: 100.0 mg/kg/injection, schedule: Q01DX009 (ip), vehicle: saline with Tween-80
[2] = dose: 50.0 mg/kg/injection, schedule: Q01DX005 (ip), vehicle: saline with Tween-80
[3] = dose: 100.0 mg/kg/injection, schedule: Q01DX005 (ip), vehicle: saline with Tween-80
[4] = dose: 200.0 mg/kg/injection, schedule: Q01DX005 (ip), vehicle: saline with Tween-80
[5] = dose: 60.0 mg/kg/injection, schedule: Q01DX005 (ip), vehicle: saline with Tween-80
[6] = dose: 120.0 mg/kg/injection, schedule: Q01DX005 (ip), vehicle: saline with Tween-80
[7] = dose: 240.0 mg/kg/injection, schedule: Q01DX005 (ip), vehicle: saline with Tween-80

Measured: T/C

CC1(C)C(=O)CCC2(C)C1CC(=O)C1(C)C2CCC2(C)C(c3ccoc3)OC(=O)C3OC321 (stereo not given)
inactive: dose: 0.5 mg/kg/injection, schedule: Q01DX009 (ip), vehicle: Klucel (hydroxypropylcellulose) (HPC) 100 % of control and 102 % of control | dose: 1.0 mg/kg/injection, schedule: Q01DX009 (ip), vehicle: Klucel (hydroxypropylcellulose) (HPC) 102 % of control | dose: 2.0 mg/kg/injection, schedule: Q01DX009 (ip), vehicle: Klucel (hydroxypropylcellulose) (HPC) 92 % of control and 96 % of control | dose: 4.0 mg/kg/injection, schedule: Q01DX009 (ip), vehicle: Klucel (hydroxypropylcellulose) (HPC) 98 % of control and 93 % of control | dose: 8.0 mg/kg/injection, schedule: Q01DX009 (ip), vehicle: Klucel (hydroxypropylcellulose) (HPC) 98 % of control and 86 % of control

C=C=CCN(C)Cc1ccccc1
inactive: dose: 25.0 mg/kg/injection, schedule: Q04DX002 (ip), vehicle: saline 106 % of control | dose: 50.0 mg/kg/injection, schedule: Q04DX002 (ip), vehicle: saline 93 % of control | dose: 100.0 mg/kg/injection, schedule: Q04DX002 (ip), vehicle: saline 100 % of control and 101 % of control

O=C(O)Cn1ccnc1[N+](=O)[O-]
inactive: dose: 12.5 mg/kg/injection, schedule: Q01DX009 (ip), vehicle: distilled water + Tween-80 100 % of control | dose: 25.0 mg/kg/injection, schedule: Q01DX009 (ip), vehicle: distilled water + Tween-80 100 % of control | dose: 50.0 mg/kg/injection, schedule: Q01DX009 (ip), vehicle: distilled water + Tween-80 118 % of control | dose: 100.0 mg/kg/injection, schedule: Q01DX009 (ip), vehicle: distilled water + Tween-80 90 % of control | dose: 200.0 mg/kg/injection, schedule: Q01DX009 (ip), vehicle: distilled water + Tween-80 109 % of control

CC(=O)CC(=O)c1c(-c2ccccc2)[nH]c2ccccc12
inactive: dose: 25.0 mg/kg/injection, schedule: Q04DX003 (ip), vehicle: saline + alcohol 100 % of control | dose: 50.0 mg/kg/injection, schedule: Q04DX003 (ip), vehicle: saline + alcohol 102 % of control | dose: 100.0 mg/kg/injection, schedule: Q04DX003 (ip), vehicle: saline + alcohol 107 % of control and 96 % of control

COc1ccc2cc1-c1cc(ccc1O)CCC(O)CC1CCCC(CC(OC(C)=O)CC2)N1 (stereo not given)
inactive: dose: 15.0 mg/kg/injection, schedule: Q01DX009 (ip), vehicle: Klucel (hydroxypropylcellulose) (HPC) 107 % of control | dose: 30.0 mg/kg/injection, schedule: Q01DX009 (ip), vehicle: Klucel (hydroxypropylcellulose) (HPC) 100 % of control | dose: 60.0 mg/kg/injection, schedule: Q01DX009 (ip), vehicle: Klucel (hydroxypropylcellulose) (HPC) 100 % of control

COC1/C=C\OC2(C)Oc3c(C)c(O)c4c(O)c(c5c(c4c3C2=O)NC2(CCN(C)CC2)N=5)=NC(=O)/C(C)=C\C=C\C(C)C(O)C(C)C(O)C(C)C(OC(C)=O)C1C (stereo not given)
inactive: dose: 25.0 mg/kg/injection, schedule: Q01DX009 (ip), vehicle: Klucel (hydroxypropylcellulose) (HPC) 100 % of control | dose: 50.0 mg/kg/injection, schedule: Q01DX009 (ip), vehicle: Klucel (hydroxypropylcellulose) (HPC) 100 % of control | dose: 100.0 mg/kg/injection, schedule: Q01DX009 (ip), vehicle: Klucel (hydroxypropylcellulose) (HPC) 102 % of control | dose: 200.0 mg/kg/injection, schedule: Q01DX009 (ip), vehicle: Klucel (hydroxypropylcellulose) (HPC) 94 % of control

O=C(O)C1CC[N-]CC1.O=C(O)C1CC[N-]CC1.O=C(O)C1CC[N-]CC1.O=C(O)C1CC[N-]CC1.[Cl][Rh][Cl]
inactive: dose: 67.0 mg/kg/injection, schedule: Q01DX009 (ip), vehicle: saline with Tween-80 100 % of control | [1] 109 % of control | dose: 150.0 mg/kg/injection, schedule: Q01DX009 (ip), vehicle: saline with Tween-80 113 % of control

CCN1CCCc2cc3c(C(F)(F)F)cc(=O)oc3cc21
inactive: dose: 50.0 mg/kg/injection, schedule: Q01DX005 (ip), vehicle: Klucel (hydroxypropylcellulose) (HPC) 97 % of control | dose: 100.0 mg/kg/injection, schedule: Q01DX005 (ip), vehicle: Klucel (hydroxypropylcellulose) (HPC) 106 % of control | dose: 200.0 mg/kg/injection, schedule: Q01DX005 (ip), vehicle: Klucel (hydroxypropylcellulose) (HPC) 97 % of control

CC(=O)NCc1cccc([N+](=O)[O-])c1
inactive: dose: 25.0 mg/kg/injection, schedule: Q01DX005 (ip), vehicle: saline with Tween-80 100 % of control | [2] 103 % of control | [3] 100 % of control | [4] 105 % of control

N#CC(Br)(Br)C(=O)c1nc(N)nc(N)n1
inactive: dose: 3.12 mg/kg/injection, schedule: Q01DX005 (ip), vehicle: saline with Tween-80 96 % of control | dose: 6.25 mg/kg/injection, schedule: Q01DX005 (ip), vehicle: saline with Tween-80 100 % of control | dose: 12.5 mg/kg/injection, schedule: Q01DX005 (ip), vehicle: saline with Tween-80 104 % of control

CC(C)(C)C(=O)CC(O)(C(F)(F)Cl)C(F)(F)Cl
inactive: dose: 50.0 mg/kg/injection, schedule: Q04DX003 (ip), vehicle: saline with Tween-80 90 % of control | dose: 100.0 mg/kg/injection, schedule: Q04DX003 (ip), vehicle: saline with Tween-80 95 % of control | dose: 200.0 mg/kg/injection, schedule: Q04DX003 (ip), vehicle: saline with Tween-80 105 % of control

O=C(Nc1ccc(Cl)c(Cl)c1)Oc1cccnc1
inactive: dose: 50.0 mg/kg/injection, schedule: Q01DX009 (ip), vehicle: saline with Tween-80 100 % of control | [1] 105 % of control

O=c1[nH]c(=O)n(C2OC(CO)C(O)C2O)cc1Br (stereo not given)
inactive: dose: 50.0 mg/kg/injection, schedule: Q01DX005 (ip), vehicle: saline 97 % of control | dose: 100.0 mg/kg/injection, schedule: Q01DX005 (ip), vehicle: saline 101 % of control | dose: 200.0 mg/kg/injection, schedule: Q01DX005 (ip), vehicle: saline 102 % of control

N#Cc1nnc2cc(-c3ccccc3)nn2c1-c1cccs1
inactive: dose: 60.0 mg/kg/injection, schedule: Q01DX005 (ip), vehicle: Klucel (hydroxypropylcellulose) (HPC) 86 % of control | dose: 120.0 mg/kg/injection, schedule: Q01DX005 (ip), vehicle: Klucel (hydroxypropylcellulose) (HPC) 90 % of control | dose: 240.0 mg/kg/injection, schedule: Q01DX005 (ip), vehicle: Klucel (hydroxypropylcellulose) (HPC) 87 % of control

CCCCC(NC(=O)CNC(=O)CN)C(=O)O (stereo not drawn) (H-Gly-Gly-[ξNle]-OH)
inactive: [2] 94 % of control | [3] 94 % of control | [4] 93 % of control

C/C(CCl)=N\NC1=NC(C)(CCl)P(=O)(NNc2ncccn2)S1 (stereo not given)
inactive: dose: 3.75 mg/kg/injection, schedule: Q01DX005 (ip), vehicle: saline 104 % of control | dose: 7.5 mg/kg/injection, schedule: Q01DX005 (ip), vehicle: saline 106 % of control | dose: 15.0 mg/kg/injection, schedule: Q01DX005 (ip), vehicle: saline 100 % of control and 113 % of control | dose: 30.0 mg/kg/injection, schedule: Q01DX005 (ip), vehicle: saline 106 % of control and 113 % of control and 97 % of control | dose: 60.0 mg/kg/injection, schedule: Q01DX005 (ip), vehicle: saline 105 % of control and 106 % of control and 107 % of control | dose: 120.0 mg/kg/injection, schedule: Q01DX005 (ip), vehicle: saline 101 % of control

OC(c1cc(-c2ccc(C(F)(F)F)cc2)nc(-c2ccc(C(F)(F)F)cc2)c1)C1CCCCN1 (stereo not given)
inactive: dose: 6.25 mg/kg/injection, schedule: Q01DX009 (ip), vehicle: saline with Tween-80 109 % of control | dose: 12.5 mg/kg/injection, schedule: Q01DX009 (ip), vehicle: saline with Tween-80 107 % of control | dose: 25.0 mg/kg/injection, schedule: Q01DX009 (ip), vehicle: saline with Tween-80 89 % of control

Cc1[nH]c(/N=C/c2ccc(N(C)C)cc2)c(C#N)c1C
inactive: [5] 91 % of control | [6] 90 % of control | [7] 97 % of control

O=C1OC2CCCC2C12C(=O)O[C@@H]1CCC[C@@H]12 (mixture of isomers)
inactive: [5] 97 % of control | [6] 99 % of control | [7] 99 % of control
